Earlier results in patent publication US20030180387A1, “Method for increasing the antioxidative potential of selenium-containing aqueous solutions” (priority 2000, published 2003).
Where two headings read alike, the source gives them in different places.

O=[Se](O)O [selenite]
Eo, standard redox potential (acidic environment): −0.740 (acidic environment) Volt
Eo, standard redox potential (basic environment): +0.366 (basic environment) Volt
